Experimental data reported in patent US20150322120A1 (priority 2012, published 2015).
Positions of bridges follow the written chain, without caps; N, C: chain ends. Non-standard residues stand in square brackets, D forms with d. Residues, ends and D or L forms follow the SMILES beside them. Chains are numbered I, II in the order given. No end group written: not given here. *: point of attachment. Glutathionyl = N[C@@H](CCC(=O)N[C@@H](CS*)C(=O)NCC(=O)O)C(=O)O; Hyp = O=C(O)[C@@H]1C[C@@H](O)CN1

Experiments:
[1] = biological target: rNav 1.7 (Rattus norvegicus, UniProt O08562); assay: cell-based; type: cell-based
[2] = biological target: hNaV1.7 (Homo sapiens, UniProt Q15858); type: cell-based
[3] = read-out: rNav 1.7 % block peptide concentration

Sequence of rNav 1.7 (O08562 whole entry, looked up): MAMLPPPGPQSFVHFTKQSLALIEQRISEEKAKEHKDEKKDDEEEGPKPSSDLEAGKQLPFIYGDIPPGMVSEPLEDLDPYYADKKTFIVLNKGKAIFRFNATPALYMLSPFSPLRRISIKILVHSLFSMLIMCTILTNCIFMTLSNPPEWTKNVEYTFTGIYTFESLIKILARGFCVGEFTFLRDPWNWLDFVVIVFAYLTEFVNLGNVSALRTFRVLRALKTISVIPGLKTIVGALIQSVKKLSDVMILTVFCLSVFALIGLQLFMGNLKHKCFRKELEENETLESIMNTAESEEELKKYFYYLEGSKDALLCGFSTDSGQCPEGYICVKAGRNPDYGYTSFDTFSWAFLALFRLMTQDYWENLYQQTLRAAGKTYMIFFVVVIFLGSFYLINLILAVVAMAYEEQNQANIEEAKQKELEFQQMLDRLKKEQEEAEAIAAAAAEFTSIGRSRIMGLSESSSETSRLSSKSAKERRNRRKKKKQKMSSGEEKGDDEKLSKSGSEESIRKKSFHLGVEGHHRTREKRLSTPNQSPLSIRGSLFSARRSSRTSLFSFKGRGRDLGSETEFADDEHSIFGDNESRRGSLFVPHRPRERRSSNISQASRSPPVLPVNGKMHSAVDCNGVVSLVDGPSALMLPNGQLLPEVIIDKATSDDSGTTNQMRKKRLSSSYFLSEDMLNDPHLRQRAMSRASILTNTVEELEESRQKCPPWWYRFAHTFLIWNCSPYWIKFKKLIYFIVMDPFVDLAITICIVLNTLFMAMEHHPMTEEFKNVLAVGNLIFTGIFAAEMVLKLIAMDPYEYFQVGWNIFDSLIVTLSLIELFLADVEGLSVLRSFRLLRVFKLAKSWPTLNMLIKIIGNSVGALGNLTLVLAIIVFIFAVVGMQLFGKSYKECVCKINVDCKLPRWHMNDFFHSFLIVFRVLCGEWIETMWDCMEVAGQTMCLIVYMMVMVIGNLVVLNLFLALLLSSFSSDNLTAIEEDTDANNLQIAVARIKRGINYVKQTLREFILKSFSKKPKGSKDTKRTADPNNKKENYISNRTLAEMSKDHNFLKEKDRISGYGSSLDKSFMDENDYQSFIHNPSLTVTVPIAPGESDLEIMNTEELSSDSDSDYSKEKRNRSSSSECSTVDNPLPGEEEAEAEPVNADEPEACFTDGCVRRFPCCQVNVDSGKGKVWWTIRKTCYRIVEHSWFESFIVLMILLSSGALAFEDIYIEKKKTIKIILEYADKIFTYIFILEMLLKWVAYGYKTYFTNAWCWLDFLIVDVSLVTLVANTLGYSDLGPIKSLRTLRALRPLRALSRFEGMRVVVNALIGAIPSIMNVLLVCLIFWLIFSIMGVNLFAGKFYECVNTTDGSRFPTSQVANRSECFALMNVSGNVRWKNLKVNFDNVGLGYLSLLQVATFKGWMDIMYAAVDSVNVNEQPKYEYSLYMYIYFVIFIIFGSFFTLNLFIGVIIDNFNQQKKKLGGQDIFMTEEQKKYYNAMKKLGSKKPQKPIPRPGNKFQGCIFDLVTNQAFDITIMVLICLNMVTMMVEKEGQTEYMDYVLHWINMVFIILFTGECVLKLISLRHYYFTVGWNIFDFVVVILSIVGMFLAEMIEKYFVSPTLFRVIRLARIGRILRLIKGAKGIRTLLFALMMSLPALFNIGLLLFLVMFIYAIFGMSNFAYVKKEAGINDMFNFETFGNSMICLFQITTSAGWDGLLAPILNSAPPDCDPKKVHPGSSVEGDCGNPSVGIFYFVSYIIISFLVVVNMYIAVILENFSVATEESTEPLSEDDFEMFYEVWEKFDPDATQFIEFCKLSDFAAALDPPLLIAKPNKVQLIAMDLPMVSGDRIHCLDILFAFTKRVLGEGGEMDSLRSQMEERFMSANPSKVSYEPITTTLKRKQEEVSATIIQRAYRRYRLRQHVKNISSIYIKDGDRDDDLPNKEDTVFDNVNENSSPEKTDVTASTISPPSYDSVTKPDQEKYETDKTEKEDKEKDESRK
Sequence of hNaV1.7 (Q15858 whole entry, looked up): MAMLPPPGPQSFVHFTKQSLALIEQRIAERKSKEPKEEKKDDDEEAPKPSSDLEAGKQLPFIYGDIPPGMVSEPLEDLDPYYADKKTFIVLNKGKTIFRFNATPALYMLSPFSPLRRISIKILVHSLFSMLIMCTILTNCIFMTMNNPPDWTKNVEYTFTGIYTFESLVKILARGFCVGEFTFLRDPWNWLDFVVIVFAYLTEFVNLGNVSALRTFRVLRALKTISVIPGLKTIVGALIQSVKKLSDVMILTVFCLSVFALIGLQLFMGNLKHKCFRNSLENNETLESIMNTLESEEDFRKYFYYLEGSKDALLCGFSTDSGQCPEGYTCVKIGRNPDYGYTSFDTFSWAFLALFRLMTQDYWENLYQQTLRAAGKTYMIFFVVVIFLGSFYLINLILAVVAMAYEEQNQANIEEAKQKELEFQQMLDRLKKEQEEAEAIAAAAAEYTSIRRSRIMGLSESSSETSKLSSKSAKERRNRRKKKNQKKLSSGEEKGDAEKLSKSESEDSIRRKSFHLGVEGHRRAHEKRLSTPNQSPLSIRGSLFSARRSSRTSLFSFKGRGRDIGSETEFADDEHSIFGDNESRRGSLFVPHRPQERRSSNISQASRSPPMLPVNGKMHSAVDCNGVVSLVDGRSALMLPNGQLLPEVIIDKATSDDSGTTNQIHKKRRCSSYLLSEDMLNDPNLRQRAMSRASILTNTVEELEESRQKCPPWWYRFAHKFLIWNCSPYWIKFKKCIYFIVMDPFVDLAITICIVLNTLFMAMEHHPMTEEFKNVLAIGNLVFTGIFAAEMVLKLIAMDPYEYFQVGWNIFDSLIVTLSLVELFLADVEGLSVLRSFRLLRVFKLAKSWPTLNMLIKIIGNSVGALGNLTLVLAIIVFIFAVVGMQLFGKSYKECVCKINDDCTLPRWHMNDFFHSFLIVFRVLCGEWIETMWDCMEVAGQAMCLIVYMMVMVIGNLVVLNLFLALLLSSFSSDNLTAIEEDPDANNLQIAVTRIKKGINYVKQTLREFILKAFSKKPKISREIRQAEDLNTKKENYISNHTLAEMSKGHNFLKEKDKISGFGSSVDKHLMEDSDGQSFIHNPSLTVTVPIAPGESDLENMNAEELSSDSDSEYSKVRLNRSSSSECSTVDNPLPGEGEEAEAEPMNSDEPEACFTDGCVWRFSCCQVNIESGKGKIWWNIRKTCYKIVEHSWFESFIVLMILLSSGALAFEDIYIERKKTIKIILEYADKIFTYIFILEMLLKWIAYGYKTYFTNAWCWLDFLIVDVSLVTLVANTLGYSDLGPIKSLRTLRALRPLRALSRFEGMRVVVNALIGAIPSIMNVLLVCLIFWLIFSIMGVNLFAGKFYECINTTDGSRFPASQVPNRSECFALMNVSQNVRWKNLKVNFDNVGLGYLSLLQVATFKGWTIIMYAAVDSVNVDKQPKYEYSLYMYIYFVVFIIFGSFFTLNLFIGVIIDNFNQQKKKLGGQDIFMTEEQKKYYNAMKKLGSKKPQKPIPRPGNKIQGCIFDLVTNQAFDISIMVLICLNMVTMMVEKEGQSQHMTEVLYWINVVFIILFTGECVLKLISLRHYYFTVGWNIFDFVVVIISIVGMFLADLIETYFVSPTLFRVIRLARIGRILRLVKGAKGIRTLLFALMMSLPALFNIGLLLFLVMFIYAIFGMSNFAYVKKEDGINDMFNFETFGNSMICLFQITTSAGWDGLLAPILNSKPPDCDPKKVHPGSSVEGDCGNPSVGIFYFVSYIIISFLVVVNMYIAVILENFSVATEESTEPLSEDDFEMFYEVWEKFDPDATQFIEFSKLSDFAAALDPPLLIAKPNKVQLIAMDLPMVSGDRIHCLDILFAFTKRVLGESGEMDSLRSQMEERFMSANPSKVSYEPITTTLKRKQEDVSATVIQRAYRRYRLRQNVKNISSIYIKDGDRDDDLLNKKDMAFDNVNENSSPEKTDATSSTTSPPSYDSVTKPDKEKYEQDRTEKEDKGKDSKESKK

Molecule | inhibition at 33 µM [1, 3] | other results
CC(C)C[C@@H]1NC(=O)[C@H](CCCCN)NC(=O)CNC(=O)[C@@H]2CSSC[C@@H]3NC(=O)[C@H](Cc4ccccc4)NC(=O)CNC(=O)[C@H](CO)NC(=O)[C@H](CSSC[C@H](NC(=O)[C@H](Cc4c[nH]c5ccccc45)NC(=O)CN)C(=O)NCC(=O)N[C@@H](CC(=O)O)C(=O)N[C@@H](C)C(=O)NCC(=O)N[C@@H](C)C(=O)N[C@@H]([C@@H](C)O)C(=O)N2)NC(=O)[C@H](CSSC[C@@H](C(=O)N[C@@H](CCCCN)C(=O)N[C@@H](CC(=O)O)C(=O)N[C@@H](CCCCN)C(=O)N[C@@H](CO)C(=O)N[C@@H](CO)C(=O)N[C@@H](C)C(=O)O)NC(=O)[C@H]([C@@H](C)O)NC(=O)[C@H](CCCCN)NC(=O)[C@H]([C@@H](C)O)NC(=O)[C@H](Cc2ccc(O)cc2)NC(=O)[C@H](CSSC[C@H](NC(=O)CC[C@H](N)C(=O)O)C(=O)NCC(=O)O)NC(=O)[C@H](CC(=O)O)NC3=O)NC(=O)[C@H](Cc2ccc(O)cc2)NC(=O)[C@H](CC(C)C)NC(=O)[C@H](CCCNC(=N)N)NC1=O [C.geo1[O6A]] (H-GWCGDAGATCGKLRLYCCSGFCDC(Glutathionyl)YTKTCKDKSSA-OH; disulfide 3-18, 10-22, 17-29) | 60% | 
CC(C)C[C@@H]1NC(=O)[C@H](CCCCN)NC(=O)CNC(=O)[C@@H]2CSSC[C@@H]3NC(=O)[C@H](Cc4ccccc4)NC(=O)CNC(=O)[C@H](CO)NC(=O)[C@H](CSSC[C@H](NC(=O)[C@H](Cc4c[nH]c5ccccc45)NC(=O)CN)C(=O)NCC(=O)N[C@@H](CC(=O)O)C(=O)N4C[C@H](O)C[C@H]4C(=O)NCC(=O)N[C@@H](C)C(=O)N[C@@H]([C@@H](C)O)C(=O)N2)NC(=O)[C@H](CSSC[C@@H](C(=O)N[C@@H](CCCCN)C(=O)N[C@@H](CC(=O)O)C(=O)N[C@@H](CCCCN)C(=O)N[C@@H](CO)C(=O)N[C@@H](CO)C(=O)N[C@@H](C)C(=O)O)NC(=O)[C@H]([C@@H](C)O)NC(=O)CNC(=O)[C@H]([C@@H](C)O)NC(=O)[C@H](Cc2ccc(O)cc2)NC(=O)[C@H](CSSC[C@H](NC(=O)CC[C@H](N)C(=O)O)C(=O)NCC(=O)O)NC(=O)[C@H](CC(=O)O)NC3=O)NC(=O)[C@H](Cc2ccc(O)cc2)NC(=O)[C@H](CC(C)C)NC(=O)[C@H](CCCNC(=N)N)NC1=O [C.geeo1[K27G]] | 60% | 
CC(=O)NCSC[C@@H]1NC(=O)[C@H](CC(=O)O)NC(=O)[C@@H]2CSSC[C@@H]3NC(=O)[C@H]([C@@H](C)O)NC(=O)[C@H](C)NC(=O)CNC(=O)[C@@H]4C[C@@H](O)CN4C(=O)[C@H](CC(=O)O)NC(=O)CNC(=O)[C@@H](NC(=O)[C@H](Cc4c[nH]c5ccccc45)NC(=O)CN)CSSC[C@H](NC(=O)[C@H](CSSC[C@@H](C(=O)N[C@@H](CCCCN)C(=O)N[C@@H](CC(=O)O)C(=O)N[C@@H](CCCCN)C(=O)N[C@@H](CO)C(=O)N[C@@H](CO)C(=O)N[C@@H](C)C(=O)O)NC(=O)[C@H]([C@@H](C)O)NC(=O)[C@H](CCCCN)NC(=O)[C@H]([C@@H](C)O)NC(=O)[C@H](Cc4ccc(O)cc4)NC1=O)NC(=O)[C@H](Cc1ccc(O)cc1)NC(=O)[C@H](CC(C)C)NC(=O)[C@H](CCCNC(=N)N)NC(=O)[C@H](CC(C)C)NC(=O)[C@H](CCCCN)NC(=O)CNC3=O)C(=O)N[C@@H](CO)C(=O)NCC(=O)N[C@@H](Cc1ccccc1)C(=O)N2 [C.geo1[C24Cys(Acm)]] | 70% | 
CC(C)C[C@@H]1NC(=O)[C@H](CCCCN)NC(=O)CNC(=O)[C@@H]2CSSC[C@@H]3NC(=O)[C@H](Cc4ccccc4)NC(=O)CNC(=O)[C@H](CO)NC(=O)[C@H](CSSC[C@H](NC(=O)[C@H](Cc4c[nH]c5ccccc45)NC(=O)CN)C(=O)NCC(=O)N[C@@H](CC(=O)O)C(=O)N4C[C@H](O)C[C@H]4C(=O)NCC(=O)N[C@@H](C)C(=O)N[C@@H]([C@@H](C)O)C(=O)N2)NC(=O)[C@H](CSSC[C@@H](C(=O)N[C@@H](CCCCN)C(=O)N[C@@H](CC(=O)O)C(=O)N[C@@H](CCCCN)C(=O)N[C@@H](CO)C(=O)N[C@@H](CO)C(=O)N[C@@H](C)C(=O)O)NC(=O)[C@H]([C@@H](C)O)NC(=O)[C@H](CCCCN)NC(=O)[C@H]([C@@H](C)O)NC(=O)[C@H](Cc2ccc(O)cc2)NC(=O)[C@H](CO)NC(=O)[C@H](CC(=O)O)NC3=O)NC(=O)[C@H](Cc2ccc(O)cc2)NC(=O)[C@H](CC(C)C)NC(=O)[C@H](CCCNC(=N)N)NC1=O [C.geo1[C24S]] (H-GWCGD[Hyp]GATCGKLRLYCCSGFCDSYTKTCKDKSSA-OH; disulfide 3-18, 10-22, 17-29) | 20% | 
DWCGDAGDACGTLKLRCCSGLCNQYSGTCTG [C. geo2] |  | % block of hNaV1.7 [2]: 69%
I: GWCGD[Hyp]GATCGKLRLYCCSGFCDCYTKTCKDKSSA / II: GWCGD[Hyp]GATCGKLRLYCCSGFCDCYTKTCKDKSSA (disulfide I:3-I:18, I:10-I:22, I:17-I:29, I:24-II:24, II:3-II:18, II:10-II:22, II:17-II:29) [C.geo1[dimer]] |  | inhibition at 30 µM [1, 3]: 70%
CVGRDSKCGPPPCCMGMTCNYERVRKCT [SEQ ID 025] |  | activity against hNav1.7 [2]: not active; activity against rNav1.7 [1]: not active
GWCGDOGATCGKLRLYCCSGFCD(Abu)YTKTCKDKS_A [C. geo1[C24Abu,des-Ser34]] |  | % block of NaV1.7 from rat [1]: 20%; reversibility of NaV1.7 block [1]: quickly reversible
CC[C@@H]1NC(=O)[C@H](CC(=O)O)NC(=O)[C@@H]2CSSC[C@@H]3NC(=O)[C@H]([C@@H](C)O)NC(=O)[C@H](C)NC(=O)CNC(=O)[C@@H]4C[C@@H](O)CN4C(=O)[C@H](CC(=O)O)NC(=O)CNC(=O)[C@@H](NC(=O)[C@H](Cc4c[nH]c5ccccc45)NC(=O)CN)CSSC[C@H](NC(=O)[C@H](CSSC[C@@H](C(=O)N[C@@H](CCCCN)C(=O)N[C@@H](CC(=O)O)C(=O)N[C@@H](CCCCN)C(=O)N[C@@H](CO)C(=O)N[C@@H](CO)C(=O)N[C@@H](C)C(=O)O)NC(=O)[C@H]([C@@H](C)O)NC(=O)[C@H](CCCCN)NC(=O)[C@H]([C@@H](C)O)NC(=O)[C@H](Cc4ccc(O)cc4)NC1=O)NC(=O)[C@H](Cc1ccc(O)cc1)NC(=O)[C@H](CC(C)C)NC(=O)[C@H](CCCNC(=N)N)NC(=O)[C@H](CC(C)C)NC(=O)[C@H](CCCCN)NC(=O)CNC3=O)C(=O)N[C@@H](CO)C(=O)NCC(=O)N[C@@H](Cc1ccccc1)C(=O)N2 [C.geo1[C24Abu]] | 20% | 
CC(C)C[C@@H]1NC(=O)[C@H](CCCCN)NC(=O)CNC(=O)[C@@H]2CSSC[C@@H]3NC(=O)[C@H](Cc4ccccc4)NC(=O)CNC(=O)[C@H](CO)NC(=O)[C@H](CSSC[C@H](NC(=O)[C@H](Cc4c[nH]c5ccccc45)NC(=O)CN)C(=O)NCC(=O)N[C@@H](CC(=O)O)C(=O)N4C[C@H](O)C[C@H]4C(=O)NCC(=O)N[C@@H](C)C(=O)N[C@@H]([C@@H](C)O)C(=O)N2)NC(=O)[C@H](CSSC[C@@H](C(=O)N[C@@H](CCCCN)C(=O)N[C@@H](CC(=O)O)C(=O)N[C@@H](CCCCN)C(=O)N[C@@H](CO)C(=O)N[C@@H](CO)C(=O)N[C@@H](C)C(=O)O)NC(=O)[C@H]([C@@H](C)O)NC(=O)[C@H](CCCCN)NC(=O)[C@H]([C@@H](C)O)NC(=O)[C@H](Cc2ccc(O)cc2)NC(=O)[C@H](CCC(=O)O)NC(=O)[C@H](CC(=O)O)NC3=O)NC(=O)[C@H](Cc2ccc(O)cc2)NC(=O)[C@H](CC(C)C)NC(=O)[C@H](CCCNC(=N)N)NC1=O [C.geo1[C24E]] (H-GWCGD[Hyp]GATCGKLRLYCCSGFCDEYTKTCKDKSSA-OH; disulfide 3-18, 10-22, 17-29) | 15% | 
CC(C)C[C@@H]1NC(=O)[C@H](CCCCN)NC(=O)CNC(=O)[C@@H]2CSSC[C@@H]3NC(=O)[C@H](Cc4ccccc4)NC(=O)CNC(=O)[C@H](CO)NC(=O)[C@H](CSSC[C@H](NC(=O)[C@H](Cc4c[nH]c5ccccc45)NC(=O)CN)C(=O)NCC(=O)N[C@@H](CC(=O)O)C(=O)N4C[C@H](O)C[C@H]4C(=O)NCC(=O)N[C@@H](C)C(=O)N[C@@H]([C@@H](C)O)C(=O)N2)NC(=O)[C@H](CSSC[C@@H](C(=O)N[C@@H](CCCCN)C(=O)N[C@@H](CC(=O)O)C(=O)N[C@@H](CCCCN)C(=O)N[C@@H](CO)C(=O)N[C@@H](CO)C(=O)N[C@@H](C)C(=O)O)NC(=O)[C@H]([C@@H](C)O)NC(=O)[C@H](CCCCN)NC(=O)[C@H]([C@@H](C)O)NC(=O)[C@H](Cc2ccc(O)cc2)NC(=O)[C@H](CCCCN)NC(=O)[C@H](CC(=O)O)NC3=O)NC(=O)[C@H](Cc2ccc(O)cc2)NC(=O)[C@H](CC(C)C)NC(=O)[C@H](CCCNC(=N)N)NC1=O [C.geo1[C24K]] (H-GWCGD[Hyp]GATCGKLRLYCCSGFCDKYTKTCKDKSSA-OH; disulfide 3-18, 10-22, 17-29) | 20% | 
